Laboratory results taken from PubChem BioAssay (NCI).
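Dose response: 5 concentrations. Exposure: 48 h. Format: 96-well plates. Endpoint: linear interpolation; highest concentration if not reached. TGI marks complete inhibition of growth.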

Key:
Test in all cases: NCI-60 cell line screen, 48 h
[1] = system: NCI-H23 lung
[2] = system: LOX IMVI melanoma
[3] = system: A549 NSCLC
[4] = system: UACC-257 melanoma
[5] = system: A498 renal
[6] = system: SNB-19 CNS
[7] = system: HCT-15 colon
[8] = system: M14 melanoma
[9] = system: OVCAR-5 ovarian
[10] = system: 786-0 renal
[11] = system: OVCAR-4 ovarian
[12] = system: MDA-MB-435
[13] = system: SK-MEL-2 melanoma
[14] = system: HCT-116 colon
[15] = system: COLO 205 colon
[16] = system: U251 CNS
[17] = system: SK-OV-3 ovarian
[18] = system: MOLT-4 leukemia
[19] = system: SF-268 CNS
[20] = system: HL-60(TB) leukemia

SMILES	TGI [1]	TGI [2]	TGI [3]	TGI [4]	TGI [5]	TGI [6]	TGI [7]	TGI [8]	TGI [9]	TGI [10]	TGI [11]	TGI [12]	TGI [13]	TGI [14]	TGI [15]	TGI [16]	TGI [17]	TGI [18]	TGI [19]	TGI [20]
S=C(N/N=C/c1ccccn1)N1CCCCCC1	> 58.6 µM	64.1 µM	29.1 µM	0.169 µM	0.735 µM	> 100 µM	> 33.5 µM	0.251 µM	> 54.2 µM	1.22 µM	37 µM	96.8 µM	24.8 µM	–	–	–	–	–	–	–
COc1ccc(NC(=O)C(=O)Cc2nc3ccc(C(=O)c4ccccc4)cc3[nH]c2=O)c([N+](=O)[O-])c1	65.4 µM	> 100 µM	> 100 µM	> 100 µM	54.8 µM	> 100 µM	> 100 µM	> 100 µM	> 100 µM	> 100 µM	> 100 µM	66.1 µM	> 100 µM	> 100 µM	40 µM	> 100 µM	> 100 µM	40.1 µM	> 100 µM	–
O=C(O)CC12CC3CC(CC(O)(C3)C1)C2	> 100 µM	> 100 µM	> 100 µM	> 100 µM	> 100 µM	> 100 µM	> 100 µM	> 100 µM	> 100 µM	> 100 µM	> 100 µM	> 100 µM	> 100 µM	> 100 µM	> 100 µM	> 100 µM	> 100 µM	–	82.7 µM	–
Cc1ccc(/N=N/C(=NNC(=O)c2ccc(C)cc2)c2ccc(N(C)C)cc2)cc1	69.3 µM	> 100 µM	87.9 µM	60 µM	–	58.7 µM	91.2 µM	60.4 µM	> 100 µM	> 100 µM	54 µM	39.5 µM	> 100 µM	68.2 µM	31.1 µM	> 100 µM	76.2 µM	> 100 µM	> 100 µM	72.1 µM
O=C(/C=C(\Nc1ccccc1O)c1ccc(Br)cc1)C(Cl)(Cl)Cl	26.1 µM	32.9 µM	12.4 µM	20.1 µM	–	20.3 µM	25.9 µM	29.2 µM	24.5 µM	27.6 µM	19.2 µM	21.8 µM	20.7 µM	22.4 µM	22.1 µM	15.4 µM	16 µM	33.7 µM	25.8 µM	9.39 µM
Nc1c(Cl)cc(-c2nc3ccccc3s2)cc1Cl	–	–	> 100 µM	> 100 µM	–	> 100 µM	> 100 µM	> 100 µM	–	> 100 µM	–	> 100 µM	> 100 µM	> 100 µM	> 100 µM	> 100 µM	> 100 µM	> 100 µM	> 100 µM	> 100 µM
CCOC(=O)/C=C/C1(CCOC(C)=O)CCCCC1	> 10 µM	> 10 µM	> 10 µM	> 10 µM	–	> 10 µM	> 10 µM	> 10 µM	> 10 µM	> 10 µM	> 10 µM	> 10 µM	> 10 µM	> 10 µM	> 10 µM	> 10 µM	> 10 µM	> 10 µM	> 10 µM	> 10 µM
